Assay results: patent publication US9951014B2, “Mammalian and bacterial nitric oxide synthase inhibitors” (Northwestern University, priority 2014, dated 2018)
Read-outs that look alike come from different tables or passages of the source.

Assays:
[1] = biological target: rat nNOS (Rattus norvegicus (Rat), UniProt P29476); assay: Oxyhemoglobin NO capture assay with purified NOS; assay type: biochemical
Experimental: (§1) The oxyhemoglobin NO assays were performed with purified NOSs using a Biotek Gen5™ microplate reader as previously reported. […] For iNOS, calmodulin and CaCl2 were omitted because iNOS is calcium independent. […] The calculated standard deviations of the assays were less than 10% with all NOSs. […] The selectivity of antagonism of nNOS was determined by calculating the ratios of the Ki values with iNOS or eNOS to those with rat nNOS.

[2] = biological target: bovine eNOS (Bos taurus (Bovine), UniProt P29473); assay: Oxyhemoglobin NO capture assay with purified NOS; assay type: biochemical
Experimental: as §1

[3] = biological target: murine iNOS (Mus musculus (Mouse), UniProt P29477); assay: Oxyhemoglobin NO capture assay with purified NOS; assay type: biochemical
Experimental: as §1

[4] = biological target: bsNOS (Bacillus subtilis (strain 168), UniProt O34453); assay: Imidazole displacement, spectral binding constant KS; details: KS (bsNOS), Table 5
bsNOS, sequence (O34453 whole entry): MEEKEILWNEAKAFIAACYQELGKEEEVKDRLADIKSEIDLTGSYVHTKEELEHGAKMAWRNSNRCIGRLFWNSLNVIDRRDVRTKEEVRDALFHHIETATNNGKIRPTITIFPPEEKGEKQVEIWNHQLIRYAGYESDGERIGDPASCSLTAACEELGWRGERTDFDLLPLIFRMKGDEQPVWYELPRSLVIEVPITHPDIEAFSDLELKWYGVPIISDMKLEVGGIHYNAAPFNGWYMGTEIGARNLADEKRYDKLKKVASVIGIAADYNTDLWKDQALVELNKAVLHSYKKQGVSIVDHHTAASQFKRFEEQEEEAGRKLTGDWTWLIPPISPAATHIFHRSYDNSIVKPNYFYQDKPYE

[5] = ratio Ki eNOS / Ki rat nNOS, Table 9
[6] = ratio Ki iNOS / Ki rat nNOS, Table 9
[7] = ratio Ki eNOS / Ki nNOS, Table 13
[8] = ratio Ki iNOS / Ki nNOS, Table 13

Compound	Ki ([1]; Table 9, read-out: Ki Rat nNOS)	Ki ([3]; Table 9, read-out: Ki iNOS)	i/n selectivity [3, 6]	Kd [4]	further results
CNCCN(c1cc(F)cc(CCc2cc(C)cc(N)n2)c1)C1CC1 [Compound 23e, N^1-(3-(2-(6-amino-4-methylpyridin-2-yl)ethyl)-5-fluorophenyl)-N^1-cyclopropyl-N^2-methylethane-1,2-diamine]	0.056 µM	8.33 µM	148.7		Ki ([2]; Table 9, read-out: Ki eNOS): 7.89 µM; e/n selectivity [2, 5]: 140.9
Cc1cc(N)nc(COC[C@H](N)[C@H](C)OCc2cc(C)cc(N)n2)c1 [Compound 11]				1.1 ± 0.1 µM	
CNCCN(C)c1cccc(Cc2cc(C)cc(N)n2)n1 [Compound 31]				94 ± 22 µM	
Cc1cc(N)nc(CCc2cc(C#N)cc(N(C)CCc3cccc(F)c3)c2)c1 [Compound 21d]	1.8 µM	45.3 µM	33.7		
CCNCCN(C)c1cc(C#N)cc(CCc2cc(C)cc(N)n2)c1 [Compound 21a]	0.064 µM	11.5 µM	178.0		Ki ([2]; Table 9, read-out: Ki eNOS): 37.6 µM; e/n selectivity [2, 5]: 583.7
Cc1cc(N)nc(-c2ccc(CNCCCc3cccc(Cl)c3)cc2)c1 [Compound 28, 6-(4-(((3-(3-Chlorophenyl)propyl)amino)methyl)phenyl)-4-methylpyridin-2-amine]				3.2 ± 0.1 µM	
Cc1cc(N)nc(CCc2cc(C#N)cc(NCCc3cccc(F)c3)c2)c1 [Compound 22, 3-(2-(6-Amino-4-methylpyridin-2-yl)ethyl)-5-((3-fluorophenethyl)amino)benzonitrile]				62 ± 25 µM	
Cc1cc(N)nc(CCc2cc(C#N)cc(NCc3cccc(F)c3)c2)c1 [Compound 23, 3-(2-(6-Amino-4-methylpyridin-2-yl)ethyl)-5-((3-fluorobenzyl)amino)benzonitrile]				9.6 ± 1.3 µM	
Cc1ccnc(CCc2cccc([C@H](N)Cc3cc(C)cc(N)n3)c2)c1 [Compound 5R, (R)-6-(2-Amino-2-(3-(2-(4-methylpyridin-2-yl)ethyl)phenyl)ethyl)-4-methylpyridin-2-amine]					Ki ([1]; Table 13, read-out: nNOS Ki): 4.37 µM; e/n selectivity [2, 7]: 240; Ki ([3]; Table 13, read-out: iNOS Ki): > 100 µM; i/n selectivity [3, 8]: >22
Cc1cc(N)nc(CCc2cc(F)cc(NCc3cccc(F)c3)c2)c1 [Compound 25, 6-(3-Fluoro-5-((3-fluorobenzyl)amino)phenethyl)-4-methylpyridin-2-amine]				19 ± 5 µM	
Cc1ccnc(CCc2cccc([C@@H](N)Cc3cc(C)cc(N)n3)c2)c1 [Compound 5S, (S)-6-(2-Amino-2-(3-(2-(4-methylpyridin-2-yl)ethyl)phenyl)ethyl)-4-methylpyridin-2-amine]					Ki ([1]; Table 13, read-out: nNOS Ki): 0.903 µM; Ki ([2]; Table 13, read-out: eNOS Ki): 328 µM; e/n selectivity [2, 7]: 363; Ki ([3]; Table 13, read-out: iNOS Ki): > 100 µM; i/n selectivity [3, 8]: >110
Cc1cc(N)nc(CCc2cc(F)cc(NC3CCNCC3)c2)c1 [Compound 23i, 6-(3-Fluoro-5-(piperidin-4-ylamino)phenethyl)-4-methylpyridin-2-amine]	0.121 µM	13.5 µM	110.9		Ki ([2]; Table 9, read-out: Ki eNOS): 4.89 µM; e/n selectivity [2, 5]: 40.2
CCN(CCc1cccc(F)c1)Cc1cccc(NC(=N)c2cccs2)c1 [Compound 15]				119 ± 25 µM	
Cc1cc(N)nc(CCc2cc(F)cc(NCc3cccnc3)c2)c1 [Compound 23g, 6-(3-Fluoro-5-((pyridin-3-ylmethyl)amino)phenethyl)-4-methylpyridin-2-amine]	1.03 µM	11 µM	10.7		Ki ([2]; Table 9, read-out: Ki eNOS): 10.3 µM; e/n selectivity [2, 5]: 10.0
Cc1cc(N)nc(CCc2cccc([C@H](N)Cc3cc(C)cc(N)n3)c2)c1 [Compound 3R, (R)-6-(2-Amino-2-(3-(2-(6-amino-4-methylpyridin-2-yl)ethyl)phenyl)ethyl)-4-methylpyridin-2-amine]					Ki ([1]; Table 13, read-out: nNOS Ki): 0.122 µM; Ki ([3]; Table 13, read-out: iNOS Ki): 15.6 µM
Cc1cc(N)nc(CCc2cc(C#N)cc(N(C)CCNC(C)C)c2)c1 [Compound 21b]	0.125 µM	45.1 µM	361.5		Ki ([2]; Table 9, read-out: Ki eNOS): 39.9 µM; e/n selectivity [2, 5]: 320.1
CNCCN(C)Cc1cccc(Cc2cc(C)cc(N)n2)c1 [Compound 32]				1.6 ± 0.6 µM	
